A value given as a limit tells only on which side of the number the result lay.

Sequence of SHP2 (Q06124 whole entry): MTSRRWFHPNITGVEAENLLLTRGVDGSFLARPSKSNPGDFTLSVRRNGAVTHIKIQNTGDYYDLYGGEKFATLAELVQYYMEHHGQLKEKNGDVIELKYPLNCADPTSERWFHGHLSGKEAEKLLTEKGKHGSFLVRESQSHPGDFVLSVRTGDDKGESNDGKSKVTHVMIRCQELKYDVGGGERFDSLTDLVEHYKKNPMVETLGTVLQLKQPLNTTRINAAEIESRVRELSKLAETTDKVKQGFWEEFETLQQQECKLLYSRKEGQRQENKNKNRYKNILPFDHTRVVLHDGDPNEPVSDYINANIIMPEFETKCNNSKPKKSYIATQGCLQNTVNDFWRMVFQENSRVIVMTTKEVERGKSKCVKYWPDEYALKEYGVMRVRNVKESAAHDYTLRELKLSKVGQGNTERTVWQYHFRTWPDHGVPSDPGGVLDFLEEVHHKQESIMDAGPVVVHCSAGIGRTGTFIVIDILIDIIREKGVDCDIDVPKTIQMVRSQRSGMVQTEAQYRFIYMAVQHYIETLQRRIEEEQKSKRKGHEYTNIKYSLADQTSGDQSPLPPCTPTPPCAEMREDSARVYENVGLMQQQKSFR

This assay concerns the target SHP2 (Homo sapiens (Human), UniProt Q06124). The assay can be described thus: SHP2 allosteric inhibition assay (DiFMUP prompt fluorescence). It is filed as biochemical. Conditions: 0.25 nM SHP2 activated with 0.5 μM peptide IRS1_pY1172(dPEG8)pY1222; substrate DiFMUP.
`C[C@@H](C#N)N(C)c1n[nH]c2nc(N3CCC4(CC3)Cc3ccccc3[C@H]4N)cnc12` (racemic) [Example 150, (S)-2-((6-((S)-1-amino-1,3-dihydrospiro[indene-2,4′-piperidin]-1′-yl)-1H-pyrazolo[3,4-b]pyrazin-3-yl)(methyl)amino)propanenitrile]: the IC50 was 50 to 1000 nM.

For `C[C@@H](C(N)=O)N(C)c1n[nH]c2nc(N3CCC4(CC3)Cc3ccccc3[C@H]4N)cnc12` (racemic) [Example 151, (2S)-2-({6-[(3S)-3-amino-1,3-dihydrospiro[indene-2,4′-piperidin]-1′-yl]-1H-pyrazolo[3,4-b]pyrazin-3-yl}(methyl)amino)propanamide], the IC50 was ≤ 50 nM.

With `N[C@@H]1c2ccccc2CC12CCN(c1cnc(N3CCC[C@H]3c3ccccc3)cn1)CC2` (racemic) [Example 165, (3S)-1′-{5-[(2S)-2-phenylpyrrolidin-1-yl]pyrazin-2-yl}-1,3-dihydrospiro[indene-2,4′-piperidin]-3-amine], the IC50 was > 10000 nM. Then `N[C@@H]1c2ccccc2CC12CCN(c1cnc(N3CCCC[C@@H]3c3ccccc3)cn1)CC2` (racemic) [Example 166, (S)-1′-(5-((R)-2-phenylpiperidin-1-yl)pyrazin-2-yl)-1,3-dihydrospiro[indene-2,4′-piperidin]-1-amine], with ≤ 50 nM; and `N[C@@H]1c2ccccc2CC12CCN(c1cnc(N3CCCC[C@H]3c3ccccc3)cn1)CC2` (racemic) [Example 176], with > 10000 nM.

For `Cn1c(N2CCC3(CC2)Cc2ccccc2[C@H]3N)nc2[nH]nc(N3CCCCC3)c2c1=O` (racemic) [Example 200], the IC50 is ≤ 50 nM.

Take `Cc1cnc(CO)c(N2CCC3(CC2)Cc2ccccc2[C@@H]3N)n1` (single isomer, unassigned) [Example 121]: the IC50 is ≤ 50 nM. For `Cc1cnc(CO)c(N2CCC3(CC2)Cc2ccccc2[C@H]3N)n1` (single isomer, unassigned) [Example 122], the half-maximal inhibitory concentration (IC50) is ≤ 50 nM. Then `Nc1nccc(Oc2n[nH]c3nc(N4CCC5(CC4)Cc4ccccc4[C@@H]5N)cnc23)c1Cl` (single isomer, unassigned) [Example 136], with ≤ 50 nM; and `Nc1nccc(Oc2n[nH]c3nc(N4CCC5(CC4)Cc4ccccc4[C@H]5N)cnc23)c1Cl` (single isomer, unassigned) [Example 137], with ≤ 50 nM. Then `C[C@@H](O)c1nc2c(N3CCCc4ncccc43)n[nH]c2nc1N1CCC2(CC1)Cc1ccccc1[C@H]2N` (single isomer, unassigned) [Example 141], with ≤ 50 nM; and `C[C@H](O)c1nc2c(N3CCCc4ncccc43)n[nH]c2nc1N1CCC2(CC1)Cc1ccccc1[C@H]2N` (single isomer, unassigned) [Example 142], with ≤ 50 nM; and `N[C@H]1c2ccccc2C[C@@]12CC=C(c1cnc3c(N4CCCc5ncccc54)n[nH]c3n1)CC2` (single isomer, unassigned) [Example 172], with 1000 to 10000 nM. Then `N[C@@H]1c2ccccc2C[C@@]12CC=C(c1cnc3c(N4CCCc5ncccc54)n[nH]c3n1)CC2` (single isomer, unassigned) [Example 173], with > 10000 nM; and `N[C@H]1c2ccccc2C[C@]12CC[C@H](c1cnc3c(N4CCCc5ncccc54)n[nH]c3n1)CC2` (single isomer, unassigned) [Example 188, (1s, 1′R, 4S)-4-(3-(3,4-dihydro-1,5-naphthyridin-1(2H)-yl)-1H-pyrazolo[3,4-b]pyrazin-6-yl)-1′,3′-dihydrospiro[cyclohexane-1,2′-inden]-1′-amine], with > 10000 nM; and `N[C@@H]1c2ccccc2CC12CCN(c1cnc(S[C@H]3CCOC3)cn1)CC2` (single isomer, unassigned) [Example 234], with ≤ 50 nM. For the molecule `N[C@H]1c2ccccc2C[C@]12CC[C@H](c1cnc(Sc3ccnc(Cl)c3Cl)cn1)CC2` (single isomer, unassigned) [Example 276, (1s, 3′R, 4S)-4-{5-[(2,3-dichloropyridin-4-yl)sulfanyl]pyrazin-2-yl}-1′,3′-dihydrospiro[cyclohexane-1,2′-inden]-3′-amine], the IC50 is ≤ 50 nM. As to `N[C@H]1c2ccccc2C[C@]12CC[C@@H](c1cnc(Sc3ccnc(Cl)c3Cl)cn1)CC2` (single isomer, unassigned) [Example 277, (1r, 4r)-4-(5-((2,3-dichloropyridin-4-yl)thio)pyrazin-2-yl)-1′,3′-dihydrospiro[cyclohexane-1,2′-inden]-1′-amine], the IC50 was in the range of 50 to 1000 nM. Then `NC1c2ccccc2C[C@]12CC[C@H](c1ccc(SCC3CC3)nc1)CC2` (single isomer, unassigned) [Example 281, (1s, 3'S, 4R)-4-{6-[(cyclopropylmethyl)sulfanyl]pyridin-3-yl}-1′,3′-dihydrospiro[cyclohexane-1,2′-inden]-3′-amine], with 50 to 1000 nM; and `NC1c2ccccc2C[C@]12CC[C@H](c1ccc(SCC3CC3)nc1)CC2` (single isomer, unassigned) [Example 282, (1s, 3′R, 4S)-4-{6-[(cyclopropylmethyl)sulfanyl]pyridin-3-yl}-1′,3′-dihydrospiro[cyclohexane-1,2′-inden]-3′-amine], with ≤ 50 nM; and `NC1c2ccccc2CC12CCC(c1cnc(SCC3CC3)cn1)CC2` (single isomer, unassigned) [Example 283, (1s, 3'S, 4R)-4-{5-[(cyclopropylmethyl)sulfanyl]pyrazin-2-yl}-1′,3′-dihydrospiro[cyclohexane-1,2′-inden]-3′-amine], with > 10000 nM. Then `C[C@@H](C(=O)N1CCC2(CC1)Cc1ccccc1[C@H]2N)c1ccc(F)cc1` (single isomer, unassigned) [Example 291], with > 10000 nM; and `N[C@@H]1c2ccccc2CC12CCN(c1cnc(N3CCCC3c3ccccc3)cn1)CC2` (stereo in doubt) [Example 164, (3S)-1′-{5-[(2S)-2-phenylpyrrolidin-1-yl]pyrazin-2-yl}-1,3-dihydrospiro[indene-2,4′-piperidin]-3-amine], with ≤ 50 nM; and `CC(=O)N1CCN(c2n[nH]c3nc(N4CCC5(CC4)Cc4ccccc4[C@@H]5N)cnc23)c2ccccc21` [Example 1, 1-(4-{6-[(3R)-3-amino-1,3-dihydrospiro[indene-2,4′-piperidin]-1′-yl]-1H-pyrazolo[3,4-b]pyrazin-3-yl}-1,2,3,4-tetrahydroquinoxalin-1-yl)ethan-1-one], with ≤ 50 nM. `CC(=O)N1CCN(c2n[nH]c3nc(N4CCC5(CC4)Cc4ccccc4[C@H]5N)cnc23)c2ccccc21` [Example 2, 1-(4-{6-[(3S)-3-amino-1,3-dihydrospiro[indene-2,4′-piperidin]-1′-yl]-1H-pyrazolo[3,4-b]pyrazin-3-yl}-1,2,3,4-tetrahydroquinoxalin-1-yl)ethan-1-one]: the IC50 was ≤ 50 nM. Then `N[C@H]1c2ccccc2CC12CCN(c1cnc3c(N4CCCc5nc(-c6ccn[nH]6)ccc54)n[nH]c3n1)CC2` [Example 3], with ≤ 50 nM; and `N[C@@H]1c2ccccc2CC12CCN(c1cnc3c(N4CCCc5nc(-c6ccn[nH]6)ccc54)n[nH]c3n1)CC2` [Example 4], with ≤ 50 nM; and `NC1C2CC2CC12CCN(c1cnc3c(N4CCCc5ncccc54)n[nH]c3n1)CC2` (stereo not drawn) [Example 7, 1′-(3-(3,4-dihydro-1,5-naphthyridin-1(2H)-yl)-1H-pyrazolo[3,4-b]pyrazin-6-yl)spiro[bicyclo[3.1.0]hexane-3,4′-piperidin]-2-amine], with ≤ 50 nM.

For `N[C@H]1c2cccc(F)c2CC12CCN(c1cnc3c(N4CCCc5ncccc54)n[nH]c3n1)CC2` [Example 16], the IC50 was 1000 to 10000 nM. Turning to `Cc1nc(N2CCC3(CC2)Cc2ccccc2[C@H]3N)c(CO)nc1-c1cccc(Cl)c1Cl` [Example 20, (S)-(3-(1-amino-1,3-dihydrospiro[indene-2,4′-piperidin]-1′-yl)-6-(2,3-dichlorophenyl)-5-methylpyrazin-2-yl)methanol], the IC50 is ≤ 50 nM.

On to `Nc1nc(N2CCC3(CC2)Cc2ccccc2[C@@H]3N)cnc1-c1cccc(Cl)c1Cl` [Example 21, (3R)-1′-[6-amino-5-(2,3-dichlorophenyl)pyrazin-2-yl]-1,3-dihydrospiro[indene-2,4′-piperidin]-3-amine], for which the concentration for half-maximal inhibition (IC50) is ≤ 50 nM.

`Nc1nc(N2CCC3(CC2)Cc2ccccc2[C@H]3N)cnc1-c1cccc(Cl)c1Cl` [Example 22, (3S)-1′-[6-amino-5-(2,3-dichlorophenyl)pyrazin-2-yl]-1,3-dihydrospiro[indene-2,4′-piperidin]-3-amine]: the IC50 was ≤ 50 nM. Then `N[C@@H]1c2cccc(F)c2CC12CCN(c1cnc3cn[nH]c3n1)CC2` [Example 23], with 1000 to 10000 nM; and `N[C@H]1c2cccc(F)c2CC12CCN(c1cnc3cn[nH]c3n1)CC2` [Example 24], with ≤ 50 nM; and `CN(C)C(=O)c1ccc2c(c1)[C@@H](N)C1(CCN(c3cnc4c(N5CCCc6ncccc65)n[nH]c4n3)CC1)C2` [Example 27], with ≤ 50 nM. In the case of `CN(C)C(=O)c1ccc2c(c1)[C@H](N)C1(CCN(c3cnc4c(N5CCCc6ncccc65)n[nH]c4n3)CC1)C2` [Example 28], the 50% inhibitory concentration (IC50) was ≤ 50 nM. Then `CO[C@H]1C[C@@H](N2CCN(c3n[nH]c4nc(N5CCC6(CC5)Cc5ccccc5C6N)cnc34)c3ccc(C#N)cc32)C1` (stereo partly drawn) [Example 32], with ≤ 50 nM; and `CO[C@H]1C[C@H](N2CCN(c3n[nH]c4nc(N5CCC6(CC5)Cc5ccccc5C6N)cnc34)c3ccc(C#N)cc32)C1` (stereo partly drawn) [Example 33], with ≤ 50 nM. Then `N#Cc1ccc2c(c1)N([C@H]1C[C@@H](O)C1)CCN2c1n[nH]c2nc(N3CCC4(CC3)Cc3ccccc3C4N)cnc12` (stereo partly drawn) [Example 34], with ≤ 50 nM. Then `N#Cc1ccc2c(c1)N([C@H]1C[C@H](O)C1)CCN2c1n[nH]c2nc(N3CCC4(CC3)Cc3ccccc3C4N)cnc12` (stereo partly drawn) [Example 35], with ≤ 50 nM. `N[C@@H]1c2ccccc2CC12CCN(c1cnc3c(N4CCCc5nc(-c6ncco6)ccc54)n[nH]c3n1)CC2` [Example 37]: the half-maximal inhibitory concentration (IC50) was ≤ 50 nM.

Regarding `N#Cc1ccc2c(c1)N(C1(C#N)CC1)CCN2c1n[nH]c2nc(N3CCC4(CC3)Cc3ccccc3[C@H]4N)cnc12` [Example 39], the IC50 is ≤ 50 nM.

Broadly, the IC50 is the concentration that gives 50% inhibition. Lower therefore signals higher potency.
